Entries after “also recorded” stand apart in the source; their conditions may differ. Read-outs that look alike come from different tables or passages of the source.
What was measured:
[1] = tested on: rats subjected to L5/L6 spinal nerve ligation; experiment: Tactile allodynia (von Frey filaments, 50% withdrawal threshold, % MPE) in rats with L5/L6 spinal nerve ligation; assay type: in vivo, rat; conditions: for ED50: Rattus norvegicus, read-out: ED50 of the anti-allodynic effect, antiepileptic alone; for Effect on 50% withdrawal threshold (anti-allodynic effect): oxcarbazepine 30-300 mg/kg, pregabalin 0.3-30 mg/kg, vitamin B12 0.06-6 mg/kg
Method: 6-week-old female Wistar rats having a body weight of 140-160 g, were used. Each rat was studied only once and sacrified. The Guidelines for pain investigations in animals (Zimmermann, 1983) were used in all the experiments.
The rats were anesthesized via intraperitoneal route with a mixture of ketamine/xylazine (45 and 12 mg/kg, respectively). A partial incision was carried out in the left transverse lumbar area for isolating and ligating the L5 and L6 left spinal nerves with a silk suture 6-0. The ligation was carried out next to the formation of the sciatic nerve and distal to the dorsal root ganglion. Subsequently, the wound was sutured. Conduct tests were performed 12 days after surgery.
For the determination of tactile allodynia, the rats were placed in individual plastic boxes having a stainless steel metallic mesh bottom during 30 minutes, for their adaptation. The tactile threshold test is based in the induction of the animal's left paw withdrawal to gentle mechanical stimuli. The paw was stimulated by applying mechanical force using different Von Frey filaments ranging from 2.36 g to 6.65 g. The thinner the filament's thickness is, the fewer force is applied, and viceversa. For stimulating the animal's paw, the intermediate filament (3.41 g) was firstly used. The left paw elevation in ten seconds was taken as a positive response and a stimulus with a lower caliber filament was applied. If no withdrawal of the animal's paw occurred, it was considered as a negative response, then a stronger stimulus was applied with the next filament until the animal responded.
Once a change in the response took place, either positive or negative, the stimulation was carried out 4 more times, taking a series of 6 patterns of positive and negative responses (Chaplan et al., 1994). The response patterns were tabulated and the 50% response threshold was calculated by using the Dixon formula (1980).
Graphs of the 50% withdrawal threshold (g) as a function of time (h) were constructed from the obtained data
50% withdrawal threshold (g)=(10^[Xf+Kδ])/10,000
From the data of the 50% withdrawal threshold, bar graphs and dose response curves were constructed for the percentage of anti-allodynic effect represented as the percentage of the maximum possible effect (% MPE), by using the following formula:
% MPE=[(AUC drug−AUC vehicle/(AUC sham−AUC vehicle)]×100
In both curves the value of the ED50 was determined.

[2] = tested on: rats having neuropathic pain; experiment: Motor incoordination observed after oral administration in the allodynia study; conditions: rat, in vivo, 300 mg/kg
Method: However, with the higher dose (300 mg/kg) the effect was maintained even for 24 hours.
With the higher dose (30 mg/kg) motor incoordination was observed between 1 and 7 hours, whereas with the 10 mg/kg dose, incoordination was observed between 3 and 4 hours after the administration.

[3] = cited from earlier work
plasmatic proteins = conditions: cited from earlier work
patients = conditions: doses of from 300 to 600 mg; cited from earlier work
[4] = tested on: tactile allodynia induced by the linkage of the spinal nerves L5 and L6; conditions: cited from earlier work

Compound | ED50 ([1]; oral, single agent, from dose-response curves) [mg/kg] | Time of maximum anti-allodynic effect ([1]; oral) | Time for which the anti-allodynic effect was maintained ([1]; oral, higher dose 300 mg/kg) [h] | Effect on 50% withdrawal threshold (anti-allodynic effect) ([1]; oral) | Motor incoordination, time window after administration [2] [h] | ED50 ([1]; po) [mg/kg] | Analgesic effect at 24 hours ([1]; oral, 24 hours after administration) | Bioavailability ([3]; after an oral dose) [%] | Time of maximum plasma peaks ([3]; after an oral dose) | Excreted by the urinary route ([3]; in vivo) | Half-life of elimination ([3]; in vivo) [h] | Metabolism ([3]; in vivo) | Oral absorption ([3]; oral) | Binding to plasmatic proteins (plasmatic proteins) | Adverse reaction: dizziness (patients) | Adverse reaction: drowsiness (patients) | Analgesic effect at 8 hours ([1]; oral, 8 hours after administration) | Effect on tactile allodynia [4]
NC(=O)N1c2ccccc2CC(=O)c2ccccc21 [oxcarbazepine] | 78.8 | about 3 hours | ≥ 24 | dose-dependent way; also recorded: significantly increased | 2 to 8 |  |  |  |  |  |  |  |  |  |  |  |  | 
CC(C)C[C@H](CN)CC(=O)O [pregabalin] |  | about 2 hours |  | dose-dependent way; also recorded: significantly increased |  | 3.3 | no longer observed | 90 | an hour and a half | about 98% | 6.3 | minimal metabolism | quickly absorbed | does not link to plasmatic proteins | 27-46% | 15-25% |  | 
cyanocobalamin [vitamin B12] |  | about 3 hours |  | significantly increased |  |  |  |  |  |  |  |  |  |  |  |  | no longer observed | capable of reducing tactile allodynia

From patent US20140323428A1, “ANTINEURITIC PHARMACEUTICAL COMBINATION AND COMPOSITIONS” (priority 2011, published 2014)
